This note sets out measurements from US4670433A, “Oxadiazolyl imidazobenzodiazepine derivatives pharmaceutical compositions thereof, and method of treating therewith” (A/S Ferrosan, priority 1985, dated 1987).

pIC50: −log10 of the molar value.

The target of one assay is benzodiazepine receptors. Nature of the assay: displacement of 3H-Ro 15-1788 from benzodiazepine receptors in vitro (rat cerebral cortical membrane homogenate). As to conditions: 50% displacement of specific binding of 3H-Ro 15-1788, 30° C. Here is the method: (§1) The pharmaceutical potency of the compounds of the present invention is evidenced by determining their capability for displacing radioactively-labelled flunitrazepam and the imidazobenzodiazepine ^3 H-Ro 15-1788 from such benzodiazepine receptors.
(§2) The displacement activity of the compounds of the invention has been determined by determining their IC50 and ED50 values. The IC50 value represents the concentration (nM, 30° C.) which causes a displacement of 50% of the specific binding of ^3 H-Ro 15-1788 in samples comprising a total volume of 1 ml.
The displacement test is performed as follows:
750 μl of rat cerebral cortical membrane homogenate was incubated with 100 μl of 5 nM ^3 H-Ro 15-1788 in water at 30° C. Then 100 μl of a solution of the test compound and 50 μl of Krebs buffer was added. After incubation the binding reaction was terminated by filtration through Whatman GF/B glass fibre filters followed by 2×5 ml wash with ice-cold buffer and the radioactivity was measured by scintillation counting. The IC50 was determined by including at least four concentrations of the test compound and log/probit analysis of the resulting data.
A general note: In a radioligand displacement assay an active substance lowers the binding of a labelled ligand.
One may read the pIC50 as −log10 of the IC50, conventionally taken in molar units. Regarding `CCc1noc(-c2ncn3c2C2CCN2C(=O)c2c(C)cccc2-3)n1` (stereo not drawn), the pIC50 is 7.52. Still for that read-out and setting: in the case of `Cc1cccc2c1C(=O)N1CCC1c1c(-c3nc(C4CC4)no3)ncn1-2` (stereo not drawn) it was 7.64; in that of `CCc1nc(-c2ncn3c2CN(C)C(=O)c2c-3cccc2C(F)(F)F)no1`, 8.25; in that of `CCc1noc(-c2ncn3c2CN(C)C(=O)c2c(C)cccc2-3)n1`, 7.35.

The subject of the next assay is benzodiazepine receptors. Nature of the assay: in vivo displacement of 3H-flunitrazepam from benzodiazepine receptors in living mouse brain. The settings on record: dose reducing specific 3H-flunitrazepam binding to 50% of control; mice, usually subcutaneously, 15 min before 3H-flunitrazepam i.v., killed after a further 20 min, forebrain membranes. Here is the method: as §1, §2
The ED50 value represents the dose (mg/kg) of a test substance which causes the specific binding of flunitrazepam to benzodiazepine receptors in a living brain to be reduced to 50% of the control value.
Such an in vivo test is carried out as follows:
Groups of mice are injected with the test substance at different doses and usually subcutaneously. Fifteen minutes later ^3 H-flunitrazepam is given intravenously to the mice and, after a further twenty minutes, the mice are killed. Their forebrain membranes are removed and the radioactivity of these forebrain membranes is measured by scintillation counting. The ED50 value is determined from dose-response curves.
Turning to `CCc1noc(-c2ncn3c2C2CCN2C(=O)c2c(C)cccc2-3)n1` (stereo not drawn), the “in vivo ED50” value was 0.4 mg/kg. The same measure, in the same setting: in the case of `Cc1cccc2c1C(=O)N1CCC1c1c(-c3nc(C4CC4)no3)ncn1-2` (stereo not drawn) it was 0.2 mg/kg; in that of `COc1ccc2c(c1)C(=O)N(C)Cc1c(-c3nc(C)no3)ncn1-2`, 4.0 mg/kg.

As to `CCc1nc(-c2ncn3c2CN(C)C(=O)c2c-3cccc2C(F)(F)F)no1`, the “in vivo ED50” value was determined as 0.5 mg/kg.

In the case of `CCc1noc(-c2ncn3c2CN(C)C(=O)c2c(C)cccc2-3)n1`, the “in vivo ED50” value worked out at 2.2 mg/kg.
